In patent US6117857A, “Pharmaceutical composition” (priority 1995, dated 2000):
Counter-ions that a name gives are not always drawn.

Tests used:
[1] = cited from earlier work
[2] = test system: recurrent herpes simplex virus infections; conditions: cited from earlier work; for Healing time: topical treatment, recurrent cutaneous virus diseases
HIV = conditions: in vitro; cited from earlier work
human herpesvirus = conditions: in vitro; cited from earlier work
Kaposi's sarcoma = conditions: intravenous treatment; cited from earlier work
[3] = Systemic uptake of topically applied foscarnet (previous research); type: in vivo; conditions: about 100 mg of 5% foscarnet cream (about 5 mg foscarnet)
[4] = test system: herpes simplex virus type 1 (strain R39); assay: Test 4. Antiviral effect of liposomal foscarnet on HSV-1 (HL cells, ELISA); type: cell-based, HSV-1; human lung fibroblast (HL) cells; conditions: Human alphaherpesvirus 1, 24 h, read-out: Antiviral effect on HSV-1, IC50
Procedure: Liposomes were constructed according to Formulations 7 and 8. The liposomes were not purified from the surrounding foscarnet-containing medium and antiviral effects by the liposomes might therefore be underestimated by cell culture assays. Antiviral effects of liposomes against herpes simplex virus type 1 were tested using previously published methods (Abele, G., et al., Antiviral Chemistry & Chemotherapy (1991) 2(3), 163-169) with some modifications. Confluent human lung fibroblast (HL) cells were infected with HSV-1 (strain R39) for one hour at 37° C. The virus inoculum was removed, and various dilutions of foscarnet-loaded liposomes, empty liposomes or foscarnet in medium were added. After 24 h the cells were lysed by addition of Triton X100, subjected to a freeze-thaw cycle, and the cell lysates tested for viral replication in an HSV-1-specific ELISA. The results obtained at a virus dilution of 1:500 and an incubation time of 24 h are stated in the following Table 4.

[5] = phospholipid liposomes; WO 89/05152; cited from earlier work
[6] = topical, 3% formulation; cited from earlier work
[7] = test system: reverse transcriptase of HIV; conditions: cited from earlier work
[8] = Test 5. Cytotoxicity of liposomal foscarnet (PBMC growth); type: cell-based; conditions: human PBMC, cell counter, read-out: Cytotoxicity, CIC50 (cell growth inhibitory concentration)
Procedure: Liposomes were prepared according to Formulation 7 above and the cytotoxic effects thereof tested using human peripheral blood mononuclear cells (PBMC) as previously described (method according to Palmer, S., et al., Aids Research and Human Retroviruses, Vol.11, No. 10, 1995 with some modifications). The PBMCs were incubated with the drugs in medium for 72 h and cell growth was measured in an automatic cell counter. Above 10 000 μM the liposomes themselves interfered with the cell counting.

Nc1nc2c(ncn2COCCO)c(=O)[nH]1 [acyclovir, 9-[(2-hydroxyethoxy)methyl]guanine]
Adverse effects of therapy ([1]; human, in vivo): very few adverse effects | Healing time [2]: only reduced by approximately one day

CC(=O)OCC(CCn1cnc2cnc(N)nc21)COC(C)=O [famciclovir]
Healing time [2]: only reduced by approximately one day

O=C(O)P(=O)(O)O [foscarnet, trisodium salt of phosphonoformic acid, hexahydrate]
Antiviral activity against replication of HIV (in words) (HIV): shows antiviral activity against the replication of HIV in vitro | Activity against human herpesvirus (in words) (human herpesvirus): proven activity against all human herpesvirus in vitro | Side-effect of intravenous treatment ([1]; intravenous, CMV retinitis and acyclovir-resistant HSV in AIDS patients): renal function impairment | Response of Kaposi's sarcoma patients (Kaposi's sarcoma): some patients have responded | Amount entering the systemic circulation per application [3]: ≤ 0.25 mg per application | IC50 [4]: 151 µM | Intracellular antiviral activity in liposome-encapsulated form [5]: several-fold higher intracellular antiviral activity | Healing time of lesions ([2]; topical, conventional cream, recurrent HSV, immunocompetent patients): shortened by approximately one day | Irritation of mucous membranes or the skin [6]: known to cause irritation of mucous membranes or the skin | Inhibition of reverse transcriptase of HIV (in words) [7]: inhibits the reverse transcriptase of HIV | CC50 at 72 h [8]: 2.46 mM

Nc1nc2c(ncn2CCC(CO)CO)c(=O)[nH]1 [penciclovir, 9-(4-hydroxy-3-hydroxymethylbut-1-yl)-guanine]
Healing time [2]: only reduced by approximately one day

CC(C)[C@H](N)C(=O)OCCOCn1cnc2c(=O)[nH]c(N)nc21 [valaciclovir, L-valyl acyclovir]
Healing time [2]: only reduced by approximately one day
